Numbers after ± are expanded uncertainties.
Conditions: 101.33 kPa, Liquid, Hot wire method

Cc1ccc(C)cc1 [1,4-dimethylbenzene]
Conditions	thermal conductivity [W/m/K]	thermal diffusivity [m2/s]
287.33 K	0.1296 ± 0.001	–
287.55 K	0.1295 ± 0.001	–
287.73 K	0.1294 ± 0.001	–
288.19 K	–	8.96e-08 ± 1.7e-09
288.74 K	–	8.89e-08 ± 1.7e-09
289.19 K	–	8.92e-08 ± 1.7e-09
294.03 K	0.1278 ± 0.001	–
294.27 K	0.1278 ± 0.001	–
294.44 K	0.1277 ± 0.001	–
294.86 K	–	8.78e-08 ± 1.7e-09
295.48 K	–	8.82e-08 ± 1.7e-09
295.9 K	–	8.82e-08 ± 1.7e-09
311.71 K	0.1234 ± 0.00099	–
311.94 K	0.1232 ± 0.00099	–
312.11 K	0.1231 ± 0.00099	–
312.56 K	–	8.41e-08 ± 1.6e-09
313.14 K	–	8.38e-08 ± 1.6e-09
313.56 K	–	8.36e-08 ± 1.6e-09
328.75 K	0.1191 ± 0.00096	–
328.99 K	0.119 ± 0.00095	–
329.16 K	0.1189 ± 0.00095	–
329.6 K	–	8.03e-08 ± 1.5e-09
330.21 K	–	8.02e-08 ± 1.5e-09
330.63 K	–	8.01e-08 ± 1.5e-09

C1=CCCCC1 [cyclohexene]
Conditions	thermal conductivity [W/m/K]	thermal diffusivity [m2/s]
257.22 K	0.1406 ± 0.0014	–
257.42 K	0.1404 ± 0.0014	–
257.57 K	0.1404 ± 0.0014	–
257.97 K	–	1.01e-07 ± 2e-09
258.49 K	–	1.01e-07 ± 2e-09
258.86 K	–	1.01e-07 ± 2e-09
275.37 K	0.1348 ± 0.0013	–
275.58 K	0.1346 ± 0.0013	–
275.73 K	0.1346 ± 0.0013	–
276.12 K	–	9.55e-08 ± 1.9e-09
276.65 K	–	9.55e-08 ± 1.9e-09
277.03 K	–	9.56e-08 ± 1.9e-09
295.57 K	0.1284 ± 0.0013	–
295.77 K	0.1282 ± 0.0013	–
295.92 K	0.1281 ± 0.0013	–
296.28 K	0.1278 ± 0.0013	–
296.29 K	–	8.83e-08 ± 1.8e-09
296.49 K	0.1277 ± 0.0012	–
296.65 K	0.1276 ± 0.0012	–
296.77 K	–	8.78e-08 ± 1.8e-09
297.03 K	–	8.88e-08 ± 1.8e-09
297.15 K	–	8.79e-08 ± 1.8e-09
297.55 K	–	8.87e-08 ± 1.8e-09
297.94 K	–	8.88e-08 ± 1.8e-09
311.67 K	0.1231 ± 0.0012	–
311.89 K	0.1229 ± 0.0012	–
312.04 K	0.1228 ± 0.0012	–
312.42 K	–	8.46e-08 ± 1.7e-09
312.96 K	–	8.46e-08 ± 1.7e-09
313.32 K	–	8.42e-08 ± 1.7e-09
327.85 K	0.118 ± 0.0012	–
328.07 K	0.1178 ± 0.0011	–
328.22 K	0.1177 ± 0.0011	–
328.59 K	–	7.97e-08 ± 1.6e-09
329.13 K	–	7.97e-08 ± 1.6e-09
329.49 K	–	7.94e-08 ± 1.6e-09

C=CCCCCC [1-heptene]
Conditions	thermal conductivity [W/m/K]	thermal diffusivity [m2/s]
262.46 K	0.1325 ± 0.001	–
262.75 K	0.1324 ± 0.001	–
262.97 K	0.1324 ± 0.001	–
263.83 K	–	9.06e-08 ± 1.7e-09
264.74 K	–	9.11e-08 ± 1.7e-09
265.37 K	–	9.1e-08 ± 1.7e-09
280.48 K	0.1268 ± 0.001	–
280.8 K	0.1267 ± 0.001	–
281.03 K	0.1264 ± 0.001	–
281.93 K	–	8.66e-08 ± 1.7e-09
282.87 K	–	8.67e-08 ± 1.7e-09
283.53 K	–	8.66e-08 ± 1.7e-09
297.36 K	0.1213 ± 0.00097	–
297.71 K	0.1213 ± 0.00097	–
297.95 K	0.1212 ± 0.00097	–
298.89 K	–	8.27e-08 ± 1.6e-09
299.87 K	–	8.27e-08 ± 1.6e-09
300.55 K	–	8.25e-08 ± 1.6e-09
320.47 K	0.1144 ± 0.00092	–
320.83 K	0.1143 ± 0.00092	–
321.08 K	0.1142 ± 0.00092	–
322.07 K	–	7.76e-08 ± 1.5e-09
323.1 K	–	7.76e-08 ± 1.5e-09
323.81 K	–	7.73e-08 ± 1.5e-09
